Assays:
[1] = target: T1, c-Src (Homo sapiens, UniProt P12931); assay: c-Src enzyme inhibition (Z-LYTE FRET); type: biochemical; details: Table 2A
T1 construct: purchased Life Technologies
Procedure, shortened: (§1)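 Z-LYTE readout: coumarin-to-fluorescein ratio after 1 h protease cleavage of unphosphorylated peptide. Kinase reactions ran 1 h at RT with ATP stock at 800 μM (c-Src) or 60 μM (Hck, Syk), following 2 h compound preincubation over 0.0012–40 μg/mL; enzyme stocks 1000/1400/2000 ng/mL.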

[2] = target: T2, Syk (Homo sapiens, UniProt P43405); assay: Syk enzyme inhibition (Z-LYTE FRET); type: biochemical; details: Table 2A
T2 construct: purchased Life Technologies
Procedure, shortened: as §1

[3] = tested on: ICAM-1 expression in BEAS2B cells; assay: Poly I:C-induced ICAM-1 expression in BEAS2B cells; type: cell-based; details: Homo sapiens, BEAS-2B, read-out: PolyIC/ICAM1 IC50 (BEAS2B)
Procedure, shortened: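 ICAM-1 readout: cell-based ELISA at 18 h post-transfection, OD450-655 divided by crystal violet OD595 per well. Stimulus was Oligofectamine-delivered Poly I:C (1 μg/mL) as RNA-virus mimic in BEAS2B cells, with compound added 2 h beforehand. Percent inhibition versus vehicle.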

[4] = tested on: d-U937 cells; assay: Cell viability: MTT assay in differentiated U937 cells; type: cell-based, human; details: 10 μg/mL
Procedure, shortened: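 Viability loss, calculated against 0.5% DMSO vehicle (gains reported negative), was measured by MTT reduction (1 h) and A550 after DMSO solubilisation. Compound exposure of d-U937 cells was 10 μg/mL final, for 24 h in 10% FCS or 4 h in 5% FCS RPMI1640.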

T1 sequence (P12931 whole entry): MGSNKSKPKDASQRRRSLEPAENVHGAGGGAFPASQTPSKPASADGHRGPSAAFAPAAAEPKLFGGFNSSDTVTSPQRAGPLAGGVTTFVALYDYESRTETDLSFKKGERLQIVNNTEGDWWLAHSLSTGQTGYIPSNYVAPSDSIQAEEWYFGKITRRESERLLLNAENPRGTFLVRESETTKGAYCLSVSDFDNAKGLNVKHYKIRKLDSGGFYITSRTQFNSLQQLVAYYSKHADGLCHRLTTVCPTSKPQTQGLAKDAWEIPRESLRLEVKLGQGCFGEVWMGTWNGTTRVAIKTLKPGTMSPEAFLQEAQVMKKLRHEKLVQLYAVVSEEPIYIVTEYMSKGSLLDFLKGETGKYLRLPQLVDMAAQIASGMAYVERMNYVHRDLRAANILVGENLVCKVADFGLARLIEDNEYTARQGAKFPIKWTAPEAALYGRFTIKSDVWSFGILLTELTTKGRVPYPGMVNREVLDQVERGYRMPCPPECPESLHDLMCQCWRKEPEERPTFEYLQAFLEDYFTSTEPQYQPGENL

IC50 [1] | IC50 [2] | Compound | IC50 [3] | MTT Assay Cell viability at time point indicated in d-U937 Cells, 4 h [4] | MTT Assay Cell viability at time point indicated in d-U937 Cells, 24 h [4]
0.051 µM | > 14 µM | Cc1ccc(-n2nc(C(C)(C)C)cc2NC(=O)Nc2ccc(OCc3ccnc(Nc4cnc(C(=O)N5CCOCC5)cn4)c3)c3ccccc23)cc1 [Example 35] | 0.113 µM | − (−ve and +ve indicate the value is below and above, respectively, the no significant effect threshold defined as 30% inhibition at 10 μg/mL at the time point indicated) | − (−ve and +ve indicate the value is below and above, respectively, the no significant effect threshold defined as 30% inhibition at 10 μg/mL at the time point indicated)
0.233 µM | > 14.2 µM | COCCNC(=O)c1cnc(Nc2cc(COc3ccc(NC(=O)Nc4cc(C(C)(C)C)nn4-c4csc(C)c4)c4ccccc34)ccn2)cn1 [Example 44] | 1.15 µM | − (−ve and +ve indicate the value is below and above, respectively, the no significant effect threshold defined as 30% inhibition at 10 μg/mL at the time point indicated) | + (−ve and +ve indicate the value is below and above, respectively, the no significant effect threshold defined as 30% inhibition at 10 μg/mL at the time point indicated)
0.966 µM | 5.82 µM | CC(C)(C)c1cc(NC(=O)Nc2ccc(OCc3ccnc(Nc4cnccn4)c3)c3ccccc23)n(-c2cccc(Cl)c2)n1 [Example 50] | > 1.61 µM | − (−ve and +ve indicate the value is below and above, respectively, the no significant effect threshold defined as 30% inhibition at 10 μg/mL at the time point indicated) | − (−ve and +ve indicate the value is below and above, respectively, the no significant effect threshold defined as 30% inhibition at 10 μg/mL at the time point indicated)
0.512 µM | > 16 µM | CCc1cnc(Nc2cc(COc3ccc(NC(=O)Nc4cc(C(C)(C)C)nn4-c4ccc(C)cc4)c4ccccc34)ccn2)cn1 [Example 37] | 0.611 µM | − (−ve and +ve indicate the value is below and above, respectively, the no significant effect threshold defined as 30% inhibition at 10 μg/mL at the time point indicated) | − (−ve and +ve indicate the value is below and above, respectively, the no significant effect threshold defined as 30% inhibition at 10 μg/mL at the time point indicated)
0.402 µM | 4.15 µM | Cc1ccc(-n2nc(C(C)(C)C)cc2NC(=O)Nc2ccc(OCc3ccnc(Nc4cncc(C5CCC5)n4)c3)c3ccccc23)cc1 [Example 47] | 0.151 µM | − (−ve and +ve indicate the value is below and above, respectively, the no significant effect threshold defined as 30% inhibition at 10 μg/mL at the time point indicated) | − (−ve and +ve indicate the value is below and above, respectively, the no significant effect threshold defined as 30% inhibition at 10 μg/mL at the time point indicated)
> 15 µM | > 15 µM | Cc1ccc(-n2nc(C(C)(C)C)cc2NC(=O)Nc2ccc(OCc3ccnc(Nc4cnccn4)c3)c3ccccc23)cc1C(F)(F)F [Example 52] | > 1.5 µM | − (−ve and +ve indicate the value is below and above, respectively, the no significant effect threshold defined as 30% inhibition at 10 μg/mL at the time point indicated) | − (−ve and +ve indicate the value is below and above, respectively, the no significant effect threshold defined as 30% inhibition at 10 μg/mL at the time point indicated)
0.032 µM | > 14.6 µM | Cc1ccc(-n2nc(C(C)(C)C)cc2NC(=O)Nc2ccc(OCc3ccnc(Nc4cncc(CC(=O)N(C)C)n4)c3)c3ccccc23)cc1 [Example 8, 2-(6-((4-(((4-(3-(3-(tert-butyl)-1-(p-tolyl)-1H-pyrazol-5-yl)ureido)naphthalen-1-yl)oxy)methyl)pyridin-2-yl)amino)pyrazin-2-yl)-N,N-dimethylacetamide] | 0.0315 µM | − (−ve and +ve indicate the value is below and above, respectively, the no significant effect threshold defined as 30% inhibition at 10 μg/mL at the time point indicated) | + (−ve and +ve indicate the value is below and above, respectively, the no significant effect threshold defined as 30% inhibition at 10 μg/mL at the time point indicated)
0.032 µM | > 14.9 µM | CNC(=O)Cc1cncc(Nc2cc(COc3ccc(NC(=O)Nc4cc(C(C)(C)C)nn4-c4ccc(C)cc4)c4ccccc34)ccn2)n1 [Example 28] | 0.0755 µM | − (−ve and +ve indicate the value is below and above, respectively, the no significant effect threshold defined as 30% inhibition at 10 μg/mL at the time point indicated) | + (−ve and +ve indicate the value is below and above, respectively, the no significant effect threshold defined as 30% inhibition at 10 μg/mL at the time point indicated)
0.556 µM | 9.25 µM | CC(C)(C)c1cc(NC(=O)Nc2ccc(OCc3ccnc(Nc4cnccn4)c3)c3ccccc23)n(-c2cccc(F)c2)n1 [Example 49] | 0.475 µM | − (−ve and +ve indicate the value is below and above, respectively, the no significant effect threshold defined as 30% inhibition at 10 μg/mL at the time point indicated) | − (−ve and +ve indicate the value is below and above, respectively, the no significant effect threshold defined as 30% inhibition at 10 μg/mL at the time point indicated)
0.196 µM | > 15.9 µM | COc1cncc(Nc2cc(COc3ccc(NC(=O)Nc4cc(C(C)(C)C)nn4-c4ccc(C)cc4)c4ccccc34)ccn2)n1 [Example 18] | 0.0978 µM | − (−ve and +ve indicate the value is below and above, respectively, the no significant effect threshold defined as 30% inhibition at 10 μg/mL at the time point indicated) | + (−ve and +ve indicate the value is below and above, respectively, the no significant effect threshold defined as 30% inhibition at 10 μg/mL at the time point indicated)
0.025 µM | > 15.2 µM | Cc1ccc(-n2nc(C(C)(C)C)cc2NC(=O)Nc2ccc(OCc3ccnc(Nc4cncc(CC(N)=O)n4)c3)c3ccccc23)cc1 [Example 32] | 0.0656 µM | − (−ve and +ve indicate the value is below and above, respectively, the no significant effect threshold defined as 30% inhibition at 10 μg/mL at the time point indicated) | − (−ve and +ve indicate the value is below and above, respectively, the no significant effect threshold defined as 30% inhibition at 10 μg/mL at the time point indicated)
0.151 µM | > 16.3 µM | Cc1ccc(-n2nc(C(C)(C)C)cc2NC(=O)Nc2ccc(OCc3ccnc(Nc4cnc(C)cn4)c3)c3ccccc23)cc1 [Example 19] | 0.34 µM | − (−ve and +ve indicate the value is below and above, respectively, the no significant effect threshold defined as 30% inhibition at 10 μg/mL at the time point indicated) | − (−ve and +ve indicate the value is below and above, respectively, the no significant effect threshold defined as 30% inhibition at 10 μg/mL at the time point indicated)
0.047 µM | > 15.9 µM | Cc1ccc(-n2nc(C(C)(C)C)cc2NC(=O)Nc2ccc(OCc3ccnc(Nc4cnc(CO)cn4)c3)c3ccccc23)cc1 [Example 10, 1-(3-(tert-Butyl)-1-(p-tolyl)-1H-pyrazol-5-yl)-3-(4-((2-((5-(hydroxymethyl)pyrazin-2-yl)amino)pyridin-4-yl)methoxy)naphthalen-1-yl)urea] | 0.0325 µM | − (−ve and +ve indicate the value is below and above, respectively, the no significant effect threshold defined as 30% inhibition at 10 μg/mL at the time point indicated) | − (−ve and +ve indicate the value is below and above, respectively, the no significant effect threshold defined as 30% inhibition at 10 μg/mL at the time point indicated)
0.01 µM | 2.22 µM | CC(C)(C)c1cc(NC(=O)Nc2ccc(OCc3ccnc(Nc4cncc(C5CC5)n4)c3)c3ccccc23)n(-c2ccc(CO)cc2)n1 [Example 25] | 0.0131 µM | − (−ve and +ve indicate the value is below and above, respectively, the no significant effect threshold defined as 30% inhibition at 10 μg/mL at the time point indicated) | + (−ve and +ve indicate the value is below and above, respectively, the no significant effect threshold defined as 30% inhibition at 10 μg/mL at the time point indicated)
